Measured values from PubChem BioAssay (NCI).
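Values below derive from 48-hour exposures of cells grown in 96-well plates, with endpoints linearly interpolated between the two concentrations bracketing the appropriate inhibition level. TGI denotes the concentration required for complete inhibition of growth.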

Key:
Test in all cases: NCI tumour cell line growth inhibition, 48 h
[1] = tested on: 786-0 renal
[2] = tested on: A498 renal
[3] = tested on: A549 NSCLC
[4] = tested on: ACHN renal
[5] = tested on: CAKI-1 renal
[6] = tested on: COLO 205 colon
[7] = tested on: DLD-1 colon
[8] = tested on: DMS 114 small cell lung
[9] = tested on: DMS 273 small cell lung
[10] = tested on: EKVX NSCLC
[11] = tested on: HCT-116 colon
[12] = tested on: HCT-15 colon
[13] = tested on: HL-60(TB) leukemia
[14] = tested on: HOP-18 NSCLC
[15] = tested on: HOP-62 NSCLC
[16] = tested on: HOP-92 NSCLC
[17] = tested on: HT29 colon
[18] = tested on: IGROV1 ovarian
[19] = tested on: K-562 leukemia
[20] = tested on: KM12 colon
[21] = tested on: KM20L2 colon
[22] = tested on: LXFL 529 NSCLC
[23] = tested on: M14 melanoma
[24] = tested on: M19-MEL melanoma
[25] = tested on: MALME-3M melanoma
[26] = tested on: MOLT-4 leukemia
[27] = tested on: NCI-H226 lung
[28] = tested on: NCI-H23 lung
[29] = tested on: NCI-H460 lung
[30] = tested on: NCI-H522 lung
[31] = tested on: OVCAR-3 ovarian
[32] = tested on: OVCAR-4 ovarian
[33] = tested on: OVCAR-5 ovarian
[34] = tested on: OVCAR-8 ovarian
[35] = tested on: RPMI-8226 leukemia
[36] = tested on: RXF-631 renal
[37] = tested on: SF-295 CNS
[38] = tested on: SF-539 CNS
[39] = tested on: SK-MEL-2 melanoma
[40] = tested on: SK-MEL-28 melanoma
[41] = tested on: SK-MEL-5 melanoma
[42] = tested on: SK-OV-3 ovarian
[43] = tested on: SN12C renal
[44] = tested on: SNB-19 CNS
[45] = tested on: SNB-75 CNS
[46] = tested on: SNB-78 CNS
[47] = tested on: SR leukemia
[48] = tested on: SW-620 colon
[49] = tested on: U251 CNS
[50] = tested on: UACC-257 melanoma
[51] = tested on: UO-31 renal
[52] = tested on: CCRF-CEM leukemia
[53] = tested on: HCC-2998 colon
[54] = tested on: LOX IMVI melanoma
[55] = tested on: RXF 393 renal
[56] = tested on: SF-268 CNS
[57] = tested on: UACC-62 melanoma
[58] = tested on: XF 498 CNS
[59] = tested on: MCF7 breast
[60] = tested on: NCI/ADR-RES ovarian
[61] = tested on: P388 leukemia
[62] = tested on: P388/ADR leukemia
[63] = tested on: SN12K1 renal

For `Cc1c(C(=O)/C=C/c2ccccc2[N+](=O)[O-])[n+](=O)c2ccccc2n1[O-]`, the TGI [1] was 17.8 µM, the TGI [2] was 26 µM and the TGI [3] was 34.3 µM. The TGI [4] was 24.2 µM, the TGI [5] was 15.7 µM and the TGI [6] was 13.7 µM. It also gave a TGI [7] of 17.9 µM, a TGI [8] of 18 µM and a TGI [9] of 16.8 µM. For the same compound, the TGI [10] was 27.6 µM, the TGI [11] was 16.5 µM and the TGI [12] was 12.6 µM. The TGI [13] was 5.71 µM, the TGI [14] was 28.7 µM and the TGI [15] was 32.2 µM. The TGI [16] was 27.4 µM, the TGI [17] was 23.2 µM and the TGI [18] was 29.9 µM. It also gave a TGI [19] of 30.6 µM, a TGI [20] of 22 µM and a TGI [21] of 18 µM. It also gave a TGI [22] of 16.6 µM, a TGI [23] of 23.1 µM and a TGI [24] of 20.5 µM. For the same compound, the TGI [25] was 27.8 µM, the TGI [26] was 29.3 µM and the TGI [27] was 24 µM. The TGI [28] was 17.8 µM, the TGI [29] was 22.5 µM and the TGI [30] was 19.1 µM. For the same compound, the TGI [31] was 13.3 µM, the TGI [32] was 22.8 µM and the TGI [33] was 26.9 µM. For the same compound, the TGI [34] was 14.3 µM, the TGI [35] was 14.7 µM and the TGI [36] was 23.9 µM. It also gave a TGI [37] of 20.4 µM, a TGI [38] of 10.2 µM and a TGI [39] of 24.1 µM. It also gave a TGI [40] of 25.5 µM, a TGI [41] of 24.4 µM and a TGI [42] of 31.8 µM. The TGI [43] was 18.6 µM, the TGI [44] was 33.4 µM and the TGI [45] was 30.3 µM. For the same compound, the TGI [46] was 70.7 µM, the TGI [47] was 31.6 µM and the TGI [48] was 17.5 µM. It also gave a TGI [49] of 28.5 µM, a TGI [50] of 20.4 µM and a TGI [51] of 33 µM.
`O=C1[C@H]2ON(c3ccccc3)C(c3ccco3)[C@H]2C(=O)N1c1ccc(Cc2ccc(N3C(=O)[C@@H]4ON(c5ccccc5)C(c5ccco5)[C@@H]4C3=O)cc2)cc1` (some centres not stated) was tested, and the TGI [1] was greater than 100 µM, the TGI [2] was greater than 100 µM and the TGI [3] was greater than 100 µM. For the same compound, the TGI [4] was greater than 100 µM, the TGI [5] was greater than 100 µM and the TGI [52] was greater than 100 µM. For the same compound, the TGI [6] was greater than 100 µM, the TGI [7] was greater than 100 µM and the TGI [8] was greater than 100 µM. The TGI [9] was greater than 100 µM, the TGI [53] was greater than 100 µM and the TGI [12] was greater than 100 µM. For the same compound, the TGI [13] was greater than 100 µM, the TGI [14] was greater than 100 µM and the TGI [15] was greater than 100 µM. The TGI [16] was greater than 100 µM, the TGI [17] was greater than 100 µM and the TGI [18] was greater than 100 µM. It also gave a TGI [19] greater than 100 µM, a TGI [20] greater than 100 µM and a TGI [21] greater than 100 µM. For the same compound, the TGI [54] was greater than 100 µM, the TGI [22] was greater than 100 µM and the TGI [23] was greater than 100 µM. It also gave a TGI [24] greater than 100 µM, a TGI [25] greater than 100 µM and a TGI [26] greater than 100 µM. The TGI [27] was greater than 100 µM, the TGI [28] was greater than 100 µM and the TGI [29] was greater than 100 µM. It also gave a TGI [31] greater than 100 µM, a TGI [32] greater than 100 µM and a TGI [33] greater than 100 µM. For the same compound, the TGI [35] was greater than 100 µM, the TGI [55] was greater than 100 µM and the TGI [56] was greater than 100 µM. It also gave a TGI [37] greater than 100 µM, a TGI [38] greater than 100 µM and a TGI [39] greater than 100 µM. It also gave a TGI [40] greater than 100 µM, a TGI [41] greater than 100 µM and a TGI [42] greater than 100 µM. For the same compound, the TGI [43] was greater than 100 µM, the TGI [45] was greater than 100 µM and the TGI [46] was greater than 100 µM. For the same compound, the TGI [48] was greater than 100 µM, the TGI [49] was greater than 100 µM and the TGI [50] was greater than 100 µM. For the same compound, the TGI [57] was greater than 100 µM, the TGI [51] was greater than 100 µM and the TGI [58] was greater than 100 µM.
`Cc1ccccc1/C=C/C(=O)c1ccccc1` gave a TGI [1] of 29.9 µM, a TGI [2] of 30.2 µM and a TGI [3] of 65.1 µM. For the same compound, the TGI [4] was 32.8 µM, the TGI [5] was 37.2 µM and the TGI [52] was 69.3 µM. For the same compound, the TGI [6] was 46.7 µM, the TGI [7] was 54.9 µM and the TGI [8] was 48 µM. It also gave a TGI [9] of 61.2 µM, a TGI [10] of 33.7 µM and a TGI [53] of 34.5 µM. For the same compound, the TGI [11] was 31 µM, the TGI [12] was greater than 10 µM and the TGI [15] was 30.8 µM. For the same compound, the TGI [16] was 37.6 µM, the TGI [17] was 47.7 µM and the TGI [18] was 62.1 µM. For the same compound, the TGI [19] was 49.7 µM, the TGI [20] was 48.6 µM and the TGI [21] was 33.6 µM. The TGI [22] was 38.6 µM, the TGI [23] was 29.6 µM and the TGI [24] was 61 µM. It also gave a TGI [25] of 35 µM, a TGI [26] of 60.7 µM and a TGI [27] of 36.7 µM. The TGI [28] was 32.2 µM, the TGI [29] was 38.7 µM and the TGI [30] was 46.8 µM. For the same compound, the TGI [31] was 31 µM, the TGI [32] was 33.2 µM and the TGI [33] was 30.9 µM. The TGI [34] was 63.9 µM, the TGI [35] was 71.4 µM and the TGI [36] was 42.5 µM. It also gave a TGI [56] of 30 µM, a TGI [38] of 28.7 µM and a TGI [39] greater than 10 µM. For the same compound, the TGI [40] was 33.9 µM, the TGI [41] was greater than 10 µM and the TGI [42] was 67.3 µM. For the same compound, the TGI [43] was greater than 10 µM, the TGI [44] was 30.3 µM and the TGI [45] was 34.6 µM. The TGI [46] was 39.2 µM, the TGI [47] was greater than 100 µM and the TGI [48] was greater than 10 µM. The TGI [49] was 30.5 µM, the TGI [50] was 42.4 µM and the TGI [57] was 38 µM. It also gave a TGI [51] of 36.2 µM and a TGI [58] of 30.8 µM.
`COc1cc(C2c3cc4c(cc3[C@@H](Nc3ccc5c(c3)OCO5)C3COC(=O)[C@H]23)OCO4)cc(OC)c1O` (some centres not stated) gave a TGI [2] of 1.84 µM, a TGI [3] of 2.56 µM and a TGI [5] of 1.43 µM. It also gave a TGI [52] of 5.37 µM, a TGI [6] of 7.41 µM and a TGI [7] of 5.45 µM. For the same compound, the TGI [9] was 1.4 µM, the TGI [10] was 16.3 µM and the TGI [53] was 3.42 µM. The TGI [11] was 15.7 µM, the TGI [12] was 2.15 µM and the TGI [13] was 0.977 µM. For the same compound, the TGI [14] was 11 µM, the TGI [15] was 0.715 µM and the TGI [16] was 8.37 µM. It also gave a TGI [17] of 6.07 µM, a TGI [18] of 35 µM and a TGI [19] of 9.74 µM. It also gave a TGI [20] of 6.91 µM, a TGI [21] greater than 24.3 µM and a TGI [54] of 3.4 µM. For the same compound, the TGI [24] was greater than 100 µM, the TGI [25] was 10.1 µM and the TGI [59] was 10.1 µM. For the same compound, the TGI [26] was 0.236 µM, the TGI [27] was 2.06 µM and the TGI [28] was 4.07 µM. The TGI [29] was 1.57 µM, the TGI [30] was 4.49 µM and the TGI [60] was 41.6 µM. It also gave a TGI [31] of 22.2 µM, a TGI [33] greater than 59.4 µM and a TGI [34] greater than 20.5 µM. For the same compound, the TGI [61] was 0.393 µM, the TGI [62] was 0.71 µM and the TGI [35] was 8.59 µM. The TGI [55] was 6.15 µM, the TGI [56] was 30 µM and the TGI [37] was 5.3 µM. For the same compound, the TGI [38] was 2.41 µM, the TGI [39] was 5.96 µM and the TGI [40] was greater than 95.3 µM. For the same compound, the TGI [41] was 2.64 µM, the TGI [42] was 16.3 µM and the TGI [63] was 5.82 µM. For the same compound, the TGI [44] was 30.1 µM, the TGI [48] was greater than 37.6 µM and the TGI [49] was 1.74 µM. The TGI [50] was 8.38 µM, the TGI [57] was 5.35 µM and the TGI [51] was 9.7 µM. For the same compound, the TGI [58] was 16.7 µM.
